Data set [1] addresses T1, PI3K p110 beta/p85 alpha (Homo sapiens, UniProt P42338). Nature of the data set: Inhibition of N-terminal His6-tagged recombinant full length human p110beta/untagged recombinant full length human p85alpha expressed in baculovirus infected Sf21 insect cells at 1 uM using PIP2 as substrate measured after 80 mins by transcreener fluorescence polarization assay relative to control.

Data set [2] is described as follows: Stability in rat liver microsomes assessed as parent compound remaining at 1 uM measured after 30 mins in presence of NADPH generating system. (In general: Liver microsomes are a subcellular fraction often used to study metabolism.)
The target of data set [3] is PI3-kinase p110-alpha/p85-alpha (Homo sapiens, UniProt P42336). Briefly: Inhibition of recombinant human full-length N-terminal His-tagged PI3K p110alpha/p85alpha expressed in baculovirus expression system at 1 uM using PIP2 as substrate measured after 80 mins by transcreener fluorescence polarization assay relative to control. Background: Polarisation of emitted light reports the rotation of a fluorescent probe.

Data set [4] in a line: Stability in human liver microsomes assessed as parent compound remaining at 1 uM measured after 30 mins in presence of NADPH generating system.
Data set [5] in a line: Cmax in Sprague-Dawley rat at 10 mg/kg, po by LC-MS/MS analysis. It counts as ADME, organism-based. More on the design: dose 10 mg/kg, route oral. Conditions: in vivo.
The nature of data set [6]: AUC in Beagle dog at 5 mg/kg, po by LC-MS/MS analysis. It counts as ADME, organism-based, Canis lupus familiaris. To be noted: in vivo.
Data set [7] concerns Rattus norvegicus. Nature of the data set: Antiarthritic activity in po dosed type2 collagen-induced Wistar rat arthritis model assessed as reduction in hind paw volume administered twice daily for 7 days and measured daily during compound dosing by plethysmometry. To be noted: 168 h. It counts as functional.
Data set [8] is described as follows: Half life in Beagle dog at 1 mg/kg, iv by LC-MS/MS analysis. It counts as ADME, organism-based, Canis lupus familiaris. To be noted: in vivo.
The test system of data set [9] is Rattus norvegicus. Briefly: Ex vivo inhibition of anti-IgD-induced B cell activation in Wistar rat assessed as CD86 expression at 1 mg/kg, po pretreated for 2 hrs followed by anti-IgD stimulation and measured after overnight incubation by flow cytometry relative to control. It counts as functional.
Data set [10] can be described thus: Clearance in Beagle dog at 1 mg/kg, iv by LC-MS/MS analysis. It counts as ADME, organism-based, Canis lupus familiaris. To be noted: in vivo.
Data set [11] can be described thus: Half life in Sprague-Dawley rat at 2.5 mg/kg, iv by LC-MS/MS analysis. It is filed as ADME, organism-based. To be noted: in vivo.
A short description of data set [12]: AUC in Sprague-Dawley rat at 10 mg/kg, po by LC-MS/MS analysis. It counts as ADME, organism-based. To be noted: in vivo.
Data set [13] can be described thus: Cmax in Beagle dog at 5 mg/kg, po by LC-MS/MS analysis. It counts as ADME, organism-based, Canis lupus familiaris. Conditions: in vivo. More on the design: dose 5 mg/kg, route oral.
A short description of data set [14]: AUC in Beagle dog at 1 mg/kg, iv by LC-MS/MS analysis. It is filed as ADME, organism-based, Canis lupus familiaris. Conditions: in vivo.
Data set [15] can be described thus: Oral bioavailability in Sprague-Dawley rat at 10 mg/kg by LC-MS/MS analysis. It counts as ADME, organism-based. Conditions: in vivo.
Data set [16] can be described thus: Clearance in Sprague-Dawley rat at 2.5 mg/kg, iv by LC-MS/MS analysis. It counts as ADME, organism-based. Conditions: in vivo.
For data set [17], the target named is T2, Phosphatidylinositol 4,5-bisphosphate 3-kinase catalytic subunit delta isoform (Homo sapiens, UniProt O00329).
T2 sequence (O00329 whole entry): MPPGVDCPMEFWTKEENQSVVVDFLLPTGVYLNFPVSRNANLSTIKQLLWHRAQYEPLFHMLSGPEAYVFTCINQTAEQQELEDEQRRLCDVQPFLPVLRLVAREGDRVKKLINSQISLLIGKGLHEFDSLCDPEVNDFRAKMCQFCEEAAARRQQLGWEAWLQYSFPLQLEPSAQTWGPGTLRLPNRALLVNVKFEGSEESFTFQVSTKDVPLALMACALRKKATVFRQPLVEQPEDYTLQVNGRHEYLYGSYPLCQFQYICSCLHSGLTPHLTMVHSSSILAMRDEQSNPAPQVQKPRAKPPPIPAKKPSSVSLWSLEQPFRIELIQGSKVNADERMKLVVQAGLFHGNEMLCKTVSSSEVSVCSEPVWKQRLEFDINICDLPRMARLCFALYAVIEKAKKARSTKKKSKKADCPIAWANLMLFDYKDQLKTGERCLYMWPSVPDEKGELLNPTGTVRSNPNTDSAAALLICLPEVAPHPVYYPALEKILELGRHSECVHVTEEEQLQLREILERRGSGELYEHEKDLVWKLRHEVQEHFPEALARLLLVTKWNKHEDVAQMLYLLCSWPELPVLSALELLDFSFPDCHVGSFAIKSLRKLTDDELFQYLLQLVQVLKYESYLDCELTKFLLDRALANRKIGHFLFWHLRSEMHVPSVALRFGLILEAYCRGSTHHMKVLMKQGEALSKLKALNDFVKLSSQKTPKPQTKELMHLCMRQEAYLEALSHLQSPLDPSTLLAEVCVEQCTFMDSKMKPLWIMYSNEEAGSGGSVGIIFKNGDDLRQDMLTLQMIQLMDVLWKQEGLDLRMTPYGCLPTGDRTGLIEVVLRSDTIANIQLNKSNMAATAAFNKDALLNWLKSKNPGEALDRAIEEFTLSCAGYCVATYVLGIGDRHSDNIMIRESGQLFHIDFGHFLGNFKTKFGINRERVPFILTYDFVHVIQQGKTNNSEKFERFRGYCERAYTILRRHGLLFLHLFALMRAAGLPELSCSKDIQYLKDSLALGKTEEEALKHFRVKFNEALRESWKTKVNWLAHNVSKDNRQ
Nature of the data set: Inhibition of PI3Kdelta in human whole blood assessed as reduction in anti-IgM-stimulated CD69 expression on B-cells preincubated for 60 mins followed by anti-IgM stimulation and measured after overnight incubation by flow cytometry. It counts as tissue-based. (In flow cytometry, cells or beads pass a laser one at a time.)

Data set [18] in a line: Oral bioavailability in Beagle dog at 5 mg/kg by LC-MS/MS analysis. To be noted: in vivo. It counts as ADME, organism-based, Canis lupus familiaris.
A short description of data set [19]: Volume of distribution at steady state in Beagle dog at 1 mg/kg, iv by LC-MS/MS analysis. It counts as ADME, organism-based, Canis lupus familiaris. To be noted: in vivo, read-out: Vdss.
The target of data set [20] is T2, Phosphatidylinositol 4,5-bisphosphate 3-kinase catalytic subunit delta isoform. Nature of the data set: Inhibition of PI3Kdelta in human whole blood assessed as reduction in fMLP-stimulated CD63 expression in basophils preincubated for 30 mins followed by fMLP stimulation. It is filed as tissue-based.
Data set [21] relates to Rattus norvegicus. Briefly: Inhibition of KC/GRO-induced neutrophil migration in Wistar rat air pouch model at 10 mg/kg, po pretreated for 0.5 hrs followed by KC/GRO-stimulation and measured after 4 hrs by flow cytometry relative to control. It counts as functional.
A short description of data set [22]: Inhibition of PI3Kdelta in rat whole blood assessed as reduction in anti-IgD-stimulated CD86 expression on B-cells preincubated for 60 mins followed by anti-IgD stimulation and measured after overnight incubation by flow cytometry. It counts as tissue-based.
Data set [23] addresses PI3-kinase p110-delta/p85-alpha (Homo sapiens, UniProt O00329). Nature of the data set: biochemical.
Description: Inhibition of N-terminal His6-tagged recombinant full length human p110delta/untagged recombinant full length human p85alpha expressed in baculovirus infected Sf21 insect cells using PIP2 as substrate measured after 80 mins by transcreener fluorescence polarization assay
A short description of data set [24]: AUC in Sprague-Dawley rat at 2.5 mg/kg, iv by LC-MS/MS analysis. It is filed as ADME, organism-based. To be noted: in vivo.
The target of data set [25] is T1, PI3K p110 beta/p85 alpha. Briefly: Inhibition of N-terminal His6-tagged recombinant full length human p110beta/untagged recombinant full length human p85alpha expressed in baculovirus infected Sf21 insect cells using PIP2 as substrate measured after 80 mins by transcreener fluorescence polarization assay.
Data set [26] is described as follows: Inhibition of PI3Kgamma in […] RAW264.7 cells assessed as reduction in C5a-stimulated AKT phosphorylation at Ser473 residue preincubated for 30 mins followed by C5a-stimulation and measured after 5 mins. It counts as cell-based.
Data set [27] has as its target Phosphatidylinositol 4,5-bisphosphate 3-kinase catalytic subunit gamma isoform (Homo sapiens, UniProt P48736).
Description: Inhibition of recombinant human full-length His-tagged PI3K p110gamma expressed in baculovirus expression system using PIP2 as substrate measured after 80 mins by transcreener fluorescence polarization assay
The target in data set [28] is T2, Phosphatidylinositol 4,5-bisphosphate 3-kinase catalytic subunit delta isoform. Briefly: Inhibition of PI3Kdelta in human Ramos cells assessed as reduction in antihuman IgM-stimulated AKT phosphorylation at Ser473 residue preincubated for 60 mins followed by antihuman IgM stimulation and measured after 15 mins. It is filed as cell-based.
Data set [29] has as its system liver microsomes (Homo sapiens / Mus musculus). Briefly: Drug metabolism in human and mouse liver microsomes assessed as oxidation of pyrrolidine linker at 1 uM measured after 30 mins in presence of NADPH-generating system. Conditions: 0.5 h.
Data set [30] is described as follows: Drug metabolism in human liver microsomes assessed as oxidation of pyrrolidine linker at 1 uM measured after 30 mins in presence of NADPH-generating system. It counts as ADME, Microsome. Conditions: 0.5 h.

As a reminder, the inhibition is the change of the read-out against control, counted positive when it falls. A word on the share remaining: it is what is left of the initial amount, in per cent. A word on the Cmax: it is the peak of the concentration-time curve. One may read the AUC as the area under the concentration-time curve, a measure of exposure. A higher AUC goes with more exposure. Usually ED50 stands for the dose at which the effect has come halfway, by size or by number of responders. The term half-life denotes the time in which the quantity being followed falls by half. A high value points to slow decline. A word on the inhibition in vivo: it is the percentage by which the read-out fell short of the control. The term clearance denotes a measure of how efficiently the substance is removed, as volume per time. Broadly, the IC50 is the point on the concentration scale where inhibition reaches its midpoint.

T1 sequence (P27986 whole entry): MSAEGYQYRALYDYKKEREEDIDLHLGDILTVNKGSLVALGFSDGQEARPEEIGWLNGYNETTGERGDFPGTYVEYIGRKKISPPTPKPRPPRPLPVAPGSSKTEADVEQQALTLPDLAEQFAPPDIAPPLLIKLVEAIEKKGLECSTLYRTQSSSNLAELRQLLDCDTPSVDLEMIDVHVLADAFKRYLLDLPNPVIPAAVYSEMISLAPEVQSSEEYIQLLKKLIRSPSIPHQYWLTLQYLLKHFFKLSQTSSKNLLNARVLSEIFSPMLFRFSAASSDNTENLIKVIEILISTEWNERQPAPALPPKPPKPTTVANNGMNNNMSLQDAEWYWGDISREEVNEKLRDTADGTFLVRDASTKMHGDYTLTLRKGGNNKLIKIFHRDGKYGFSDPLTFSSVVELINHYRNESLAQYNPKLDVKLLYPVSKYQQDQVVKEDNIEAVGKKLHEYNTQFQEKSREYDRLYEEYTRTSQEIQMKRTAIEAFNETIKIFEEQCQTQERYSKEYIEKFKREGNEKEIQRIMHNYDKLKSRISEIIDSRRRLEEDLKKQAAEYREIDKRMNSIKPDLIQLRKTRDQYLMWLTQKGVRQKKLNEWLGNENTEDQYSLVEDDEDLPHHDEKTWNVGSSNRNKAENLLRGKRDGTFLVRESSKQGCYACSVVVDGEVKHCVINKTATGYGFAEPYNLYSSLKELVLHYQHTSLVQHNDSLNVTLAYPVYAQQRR
T1 sequence (P42338 whole entry): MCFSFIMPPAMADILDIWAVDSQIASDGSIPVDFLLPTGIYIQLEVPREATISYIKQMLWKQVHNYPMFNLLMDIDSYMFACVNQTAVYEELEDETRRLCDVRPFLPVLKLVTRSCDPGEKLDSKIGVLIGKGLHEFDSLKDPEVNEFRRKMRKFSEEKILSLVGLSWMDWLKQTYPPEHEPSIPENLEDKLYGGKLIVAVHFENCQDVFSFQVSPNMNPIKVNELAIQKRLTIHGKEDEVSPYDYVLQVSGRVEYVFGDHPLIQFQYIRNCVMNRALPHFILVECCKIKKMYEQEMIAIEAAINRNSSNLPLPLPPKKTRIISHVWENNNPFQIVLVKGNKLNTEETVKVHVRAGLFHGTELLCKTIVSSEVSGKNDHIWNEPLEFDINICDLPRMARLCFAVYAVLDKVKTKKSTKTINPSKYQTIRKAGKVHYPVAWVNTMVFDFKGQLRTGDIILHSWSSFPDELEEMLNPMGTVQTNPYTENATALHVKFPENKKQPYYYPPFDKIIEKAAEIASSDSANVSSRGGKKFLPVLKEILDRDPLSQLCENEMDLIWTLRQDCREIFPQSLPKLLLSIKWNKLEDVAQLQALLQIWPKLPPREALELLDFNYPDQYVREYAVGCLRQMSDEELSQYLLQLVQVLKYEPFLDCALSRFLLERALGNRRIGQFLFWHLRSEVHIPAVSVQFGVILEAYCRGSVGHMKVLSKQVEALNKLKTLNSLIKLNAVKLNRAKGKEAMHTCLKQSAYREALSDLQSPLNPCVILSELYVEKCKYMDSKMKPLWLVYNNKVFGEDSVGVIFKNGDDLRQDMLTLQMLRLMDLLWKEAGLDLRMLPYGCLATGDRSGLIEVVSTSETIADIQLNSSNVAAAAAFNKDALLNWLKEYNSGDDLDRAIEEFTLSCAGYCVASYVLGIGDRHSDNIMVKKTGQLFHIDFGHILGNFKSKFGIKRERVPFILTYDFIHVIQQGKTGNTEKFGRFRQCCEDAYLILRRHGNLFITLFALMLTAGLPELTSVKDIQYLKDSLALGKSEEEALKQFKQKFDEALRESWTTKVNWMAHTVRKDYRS
Chain of Phosphatidylinositol 4,5-bisphosphate 3-kinase catalytic subunit gamma isoform (P48736 whole entry, canonical isoform): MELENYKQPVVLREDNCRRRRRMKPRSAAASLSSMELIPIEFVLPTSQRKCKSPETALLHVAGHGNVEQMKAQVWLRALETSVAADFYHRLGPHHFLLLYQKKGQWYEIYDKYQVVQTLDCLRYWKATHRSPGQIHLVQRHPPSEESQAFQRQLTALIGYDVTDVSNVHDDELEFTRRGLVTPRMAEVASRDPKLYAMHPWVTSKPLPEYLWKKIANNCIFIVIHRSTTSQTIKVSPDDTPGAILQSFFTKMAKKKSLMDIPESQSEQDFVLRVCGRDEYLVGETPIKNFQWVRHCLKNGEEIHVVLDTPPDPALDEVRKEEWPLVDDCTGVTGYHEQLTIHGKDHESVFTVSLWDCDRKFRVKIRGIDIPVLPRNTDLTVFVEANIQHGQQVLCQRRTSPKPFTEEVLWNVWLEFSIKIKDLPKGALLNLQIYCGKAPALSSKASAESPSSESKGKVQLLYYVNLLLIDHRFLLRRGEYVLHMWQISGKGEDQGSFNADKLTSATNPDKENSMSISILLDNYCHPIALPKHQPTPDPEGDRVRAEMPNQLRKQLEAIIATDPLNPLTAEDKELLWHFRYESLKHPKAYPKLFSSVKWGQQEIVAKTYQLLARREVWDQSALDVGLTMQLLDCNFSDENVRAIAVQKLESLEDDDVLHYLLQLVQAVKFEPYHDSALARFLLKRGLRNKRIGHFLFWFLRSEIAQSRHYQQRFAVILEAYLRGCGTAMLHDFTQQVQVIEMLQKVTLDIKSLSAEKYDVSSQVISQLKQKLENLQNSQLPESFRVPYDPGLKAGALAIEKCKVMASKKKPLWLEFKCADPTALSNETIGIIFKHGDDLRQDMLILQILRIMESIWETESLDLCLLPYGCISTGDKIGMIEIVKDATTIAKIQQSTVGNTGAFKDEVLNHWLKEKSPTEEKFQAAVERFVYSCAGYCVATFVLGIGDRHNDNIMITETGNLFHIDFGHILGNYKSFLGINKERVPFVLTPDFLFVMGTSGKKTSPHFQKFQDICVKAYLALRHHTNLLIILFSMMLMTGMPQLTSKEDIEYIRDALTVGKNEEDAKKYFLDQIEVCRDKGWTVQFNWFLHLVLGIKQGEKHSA
Chain of PI3-kinase p110-delta/p85-alpha (P27986 whole entry, one chain of several): as the sequence (P27986 whole entry) above
Chain of PI3-kinase p110-alpha/p85-alpha (P27986 whole entry): as above
Chain of PI3-kinase p110-alpha/p85-alpha (P42336 whole entry): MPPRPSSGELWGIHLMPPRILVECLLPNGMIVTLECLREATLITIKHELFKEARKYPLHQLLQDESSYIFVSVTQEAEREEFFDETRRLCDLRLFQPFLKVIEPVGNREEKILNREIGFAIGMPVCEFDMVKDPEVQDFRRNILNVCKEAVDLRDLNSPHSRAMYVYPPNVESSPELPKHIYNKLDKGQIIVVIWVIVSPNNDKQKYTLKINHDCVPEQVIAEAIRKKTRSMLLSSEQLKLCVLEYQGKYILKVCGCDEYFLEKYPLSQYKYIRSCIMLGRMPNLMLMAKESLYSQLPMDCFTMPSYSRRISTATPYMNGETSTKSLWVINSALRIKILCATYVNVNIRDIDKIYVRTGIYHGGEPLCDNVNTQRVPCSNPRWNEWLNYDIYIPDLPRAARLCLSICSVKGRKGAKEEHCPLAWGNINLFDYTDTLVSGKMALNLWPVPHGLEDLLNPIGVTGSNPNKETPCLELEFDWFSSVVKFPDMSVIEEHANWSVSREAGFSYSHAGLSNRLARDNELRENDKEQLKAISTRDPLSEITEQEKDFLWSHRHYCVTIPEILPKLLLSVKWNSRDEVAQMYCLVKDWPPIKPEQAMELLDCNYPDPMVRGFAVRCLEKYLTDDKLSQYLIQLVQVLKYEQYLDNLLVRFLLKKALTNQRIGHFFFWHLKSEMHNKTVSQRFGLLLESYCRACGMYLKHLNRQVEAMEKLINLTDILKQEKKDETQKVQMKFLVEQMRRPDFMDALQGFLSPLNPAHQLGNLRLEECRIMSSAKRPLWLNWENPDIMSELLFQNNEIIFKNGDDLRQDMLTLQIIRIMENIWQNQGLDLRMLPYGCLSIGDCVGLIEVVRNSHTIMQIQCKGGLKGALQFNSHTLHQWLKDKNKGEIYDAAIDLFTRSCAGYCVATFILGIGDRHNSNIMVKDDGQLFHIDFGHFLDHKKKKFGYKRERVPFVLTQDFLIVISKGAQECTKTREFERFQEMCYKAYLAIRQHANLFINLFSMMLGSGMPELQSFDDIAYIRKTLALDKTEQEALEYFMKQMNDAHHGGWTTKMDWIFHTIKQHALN

`Nc1ncc(Cl)c(N2CC[C@H]2c2nn3ccc(Cl)c3c(=O)n2-c2ccccc2)n1`: the inhibition at 1 µM in data set [1] is 22.9%.
With `N#Cc1c[nH]c2ncnc(N3CCC[C@H]3c3nn4ccc(Cl)c4c(=O)n3-c3ccccc3)c12`, the share remaining at 0.5 h, 1 µM in data set [2] was determined as 38.7%.
Take `O=c1c2c(Cl)ccn2nc([C@@H]2CCN2c2ncnc3[nH]cnc23)n1-c1ccccc1`: the inhibition at 1 µM was -1.5% in data set [3] and 18.5% in data set [1]. Also, the share remaining at 0.5 h, 1 µM in [2] was found to be 78.5%; in data set [4], 95.4%.
For the compound `CC(=O)c1cnc(N)nc1N1CC[C@H]1c1nn2ccc(Cl)c2c(=O)n1-c1ccccc1`, the Cmax in [5] stood at 2730 ng/mL; in [13], 2530 ng/mL. In addition, the exposure (AUC) amounted to 13100 ng·h/mL in [6], 14300 ng·h/mL in data set [12], 3260 ng·h/mL in data set [14] and 3270 ng·h/mL in [24]. In data set [7], the ED50 turned out to be 0.25 mg/kg. Moreover, the half-life in data set [8] is 6.3 h; in data set [11], 1.5 h. The inhibition in vivo at 1 mg/kg in data set [9] came out at 88.3%. Besides, the clearance stood at 5.4 mL/min/kg in data set [10] and 12.7 mL/min/kg in data set [16]. In addition, the figures for the bioavailability in data set [15] and in [18] were 108% and 82.4%, respectively. Further, the IC50 in [17] is 63 nM; in data set [20], 337 nM; in data set [22], 44 nM; in data set [23], 5 nM; in data set [25], 590 nM. Moreover, the Vd in data set [19] is 1.7 L/kg. The inhibition in vivo at 10 mg/kg in [21] stood at 87.9%.
With `CC(=O)c1c[nH]c2ncnc(N3C[C@@H](F)C[C@H]3c3nn4ccc(Cl)c4c(=O)n3-c3ccccc3)c12`, the share remaining at 0.5 h, 1 µM is 60.4% in data set [2] and 20.1% in [4].
Regarding `N#Cc1c[nH]c2ncnc(N3CC[C@H]3c3nn4ccc(Cl)c4c(=O)n3-c3ccccc3)c12`, the inhibition at 1 µM in data set [3] is -0.3%. Besides, the IC50 in [26] is 152 nM; in [23], 13 nM; in [27], 34 nM; in data set [25], 945 nM; in data set [28], 21 nM. Also, the share remaining at 0.5 h, 1 µM worked out at 63.9% in data set [2] and 89.8% in data set [4].
`N#Cc1c[nH]c2ncnc(N3CCC[C@H]3c3nn4cccc4c(=O)n3-c3ccccc3)c12`: the Drug metabolism entry in [29] and in data set [30] was “Metabolite_Detected” in each case. For the same compound, the results for the IC50 in data set [26], in data set [27] and in [28] were 40 nM, 19 nM and 3 nM, respectively. For the same compound, the inhibition at 1 µM in data set [1] turned out to be 47.7%. Further, the results for the share remaining at 0.5 h, 1 µM in data set [2] and in data set [4] were 19.1% and 2.8%, respectively.
For `CC[C@H](Nc1ncnc2[nH]cnc12)c1nc2cccc(F)c2c(=O)n1-c1ccccc1` [IDELALISIB], the IC50 in [26] is 337 nM.
Take `O=c1c2c(Cl)ccn2nc([C@@H]2CCCN2c2ncnc3[nH]cnc23)n1-c1cccc(F)c1`: in data set [26], the IC50 was 8 nM. Besides, the inhibition at 1 µM in data set [1] was found to be 54.8%. Further, the fraction remaining at 0.5 h, 1 µM stood at 34.6% in data set [2] and 64.3% in data set [4].
For the compound `O=c1c2c(F)ccn2nc([C@@H]2CCCN2c2ncnc3[nH]cnc23)n1-c1ccccc1`, in [1], the inhibition at 1 µM stood at 52.9%. In addition, in [2], the share remaining at 0.5 h, 1 µM worked out at 51.8%.
Take `O=c1c2c(Cl)ccn2nc([C@@H]2C[C@H](F)CN2c2ncnc3[nH]cnc23)n1-c1ccccc1`: the figures for the IC50 in data set [26] and in [28] were 20 nM and 1 nM, respectively. For the same compound, the share remaining at 0.5 h, 1 µM in data set [2] amounted to 43.8%.

These data come from ChEMBL document CHEMBL4350965 (J Med Chem, 2019).
